Reference: ChEMBL document CHEMBL1667752 (Eur J Med Chem, 2011)
pKi: −log10 of the molar value.

Key:
Homo sapiens = species on record: Homo sapiens; assay: Selectivity ratio of Ki for human CB1 to Ki for human CB2
Cannabinoid receptor 1 = Cannabinoid receptor 1 (Homo sapiens, UniProt P21554); assay: Displacement of [3H]CP 55940 from human CB1 receptor in cell free system
Cannabinoid receptor 2 = Cannabinoid receptor 2 (Homo sapiens, UniProt P34972); assay: Displacement of [3H]CP 55940 from human CB2 receptor in cell free system; conditions: for pKi: read-out: Ki; for Ki: read-out: pKi (converted)
Cannabinoid receptor 2, sequence (P34972 whole entry): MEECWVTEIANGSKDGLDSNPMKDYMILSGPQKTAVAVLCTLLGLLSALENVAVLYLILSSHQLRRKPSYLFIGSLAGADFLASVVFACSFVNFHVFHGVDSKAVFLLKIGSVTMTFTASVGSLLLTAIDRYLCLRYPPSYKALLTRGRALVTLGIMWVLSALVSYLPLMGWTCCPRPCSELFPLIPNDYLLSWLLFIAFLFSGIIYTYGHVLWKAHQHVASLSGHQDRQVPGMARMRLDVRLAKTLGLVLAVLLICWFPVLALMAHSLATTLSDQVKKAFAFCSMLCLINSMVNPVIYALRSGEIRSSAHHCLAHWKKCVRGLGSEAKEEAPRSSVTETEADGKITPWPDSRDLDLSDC

Cannabinoid receptor 1, sequence (P21554 whole entry): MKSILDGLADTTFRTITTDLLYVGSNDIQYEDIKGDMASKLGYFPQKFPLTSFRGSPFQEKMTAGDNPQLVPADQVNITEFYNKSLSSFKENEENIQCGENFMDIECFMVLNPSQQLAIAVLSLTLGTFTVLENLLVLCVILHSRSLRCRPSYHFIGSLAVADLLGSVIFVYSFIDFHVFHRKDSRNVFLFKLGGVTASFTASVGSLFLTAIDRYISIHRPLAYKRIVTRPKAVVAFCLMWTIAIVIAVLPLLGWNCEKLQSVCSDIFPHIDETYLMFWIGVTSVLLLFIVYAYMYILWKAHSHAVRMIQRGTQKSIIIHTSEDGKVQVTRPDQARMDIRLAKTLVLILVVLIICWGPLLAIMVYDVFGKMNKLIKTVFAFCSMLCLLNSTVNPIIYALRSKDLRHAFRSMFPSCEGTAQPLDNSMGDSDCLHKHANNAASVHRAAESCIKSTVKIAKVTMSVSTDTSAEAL

Row | SMILES | log(ratioKi) (Homo sapiens) | pKi (Cannabinoid receptor 1) | pKi (Cannabinoid receptor 2) | Ki (Cannabinoid receptor 2) [nM]
1 | CCC(C)(C)C(=O)Nc1cc(CN2CCOCC2)c(C)cn1 | 2.19 | – | – | –
2 | CCC(C)(C)C(=O)Cc1cc(C)c(C)c(S(=O)(=O)N2CCCCCC2)c1 | 2.3 | 5.74 | 8.05 | –
3 | CCCC(C)(C)c1ccc2c(c1)OC(C)(C)[C@@H]1CC=C(C)C[C@@H]21 | 2.3 | – | – | –
4 | COc1cccc2c(C(=O)C3C(C)(C)C3(C)C)cn(CC3CCOCC3)c12 | – | – | 10.00 | –
5 | C#Cc1ccc2c(c1)c(=O)c(C(=O)NC13CC4CC(CC(C4)C1)C3)cn2CCCCC | 3.05 | – | – | –
6 | CCCCCCC1(c2cc(O)c3c(c2)OC(C)(C)[C@@H]2CC=C(C)C[C@@H]32)OCCO1 | 0.43 | 9.30 | 9.70 | –
7 | Cc1ccc2c(C(=O)C3C(C)(C)C3(C)C)cn(CC3CCOCC3)c2c1 | – | – | 9.70 | –
8 | CC1=CC[C@@H]2[C@@H](C1)c1c(O)cc(C3(C4CCCCC4)SCCS3)cc1OC2(C)C | 0.24 | – | – | –
9 | COCCn1c(C)c(C(C)(C)C)s/c1=N\C(=O)c1ccc(C(F)(F)F)cc1 | 2.6 | 5.39 | 8.00 | –
10 | CC1=CC[C@@H]2[C@@H](C1)c1c(O)cc(-c3cccc4ccccc34)cc1OC2(C)C | 0.09 | – | – | –
11 | COc1ccc2c(c1)c(CCN1CCOCC1)c(C)n2C(=O)c1cccc(Cl)c1Cl | 2.21 | – | – | –
12 | Cc1ccc2c(c1)Cc1c(C(=O)NN3CCCCC3)nn(-c3ccc(Cl)cc3Cl)c1-2 | 3.95 | 6.44 | 10.40 | –
13 | CCCCCn1cc(C(=O)NC23CC4CC(CC(C4)C2)C3)c(=O)c2cc(-c3cccs3)ccc21 | 3.68 | – | – | –
14 | CCCCc1c(C(=O)NC23CC4CC(CC(C4)C2)C3)nc(C)n1-c1ccccc1 | 2.3 | – | – | –
15 | Cc1ccc(C(=O)NC(C(C)(C)C)C(C)(C)C)cc1S(=O)(=O)N1CCOCC1 | 0.95 | – | – | –
16 | CCCCCn1cc(C(=O)NC23CC4CC(CC(C4)C2)C3)c(=O)c2cc(Br)ccc21 | 1.82 | – | – | –
17 | CCCCCCC(C)(C)c1cc(OC)c2c(c1)OC(C)(C)[C@@H]1CC=C(C)C[C@@H]21 | 2.21 | 5.98 | 8.19 | –
18 | COCCn1c(C)c(C)s/c1=N\C(=O)C1C(C)(C)C1(C)C | 2.62 | – | 9.19 | –
19 | Cc1c(C(C)(C)C)s/c(=N\C(=O)c2ccc(OC(F)(F)F)cc2)n1CC1CC1 | 2.28 | 5.96 | 8.24 | –
20 | Cc1c(C(C)(C)C)s/c(=N\S(=O)(=O)c2cccc3ccccc23)n1C1CC1 | 2.02 | 5.77 | 7.80 | –
21 | N#Cc1c(Oc2cccc(OS(=O)(=O)CCCC(F)(F)F)c2)cccc1C(F)(F)F | 0.03 | 7.32 | – | –
22 | CCCCCOc1c(OC)ccc2cc(C(=O)NCc3ccc4c(c3)OCO4)c(=O)[nH]c12 | – | 5.63 | – | –
23 | COCCn1cc(C(=O)C2C(C)(C)C2(C)C)c2ccccc21 | 2.35 | – | – | –
24 | CC1=CC[C@@H]2[C@@H](C1)c1c(O)cc(C3(C#N)CCCCC3)cc1OC2(C)C | 0.34 | – | – | –
25 | CC1=CC[C@@H]2[C@@H](C1)c1c(OC(=O)CCCN3CCOCC3)cc(C(C)(C)CCCCC#N)cc1OC2(C)C | 0.02 | 8.08 | 8.10 | –

Row | SMILES | log(ratioKi) (Homo sapiens) | pKi (Cannabinoid receptor 1) | pKi (Cannabinoid receptor 2) | Ki (Cannabinoid receptor 2) [nM]
26 | CC1(C)C(C(=O)c2cn(CC3CCOCC3)c3cc(-c4ccccc4)ccc23)C1(C)C | 2.27 | – | 9.40 | –
27 | CCC(C)(C)C(=O)Cc1cc(C)c(C)c(S(=O)(=O)N2CCCCC2)c1 | 2.38 | 6.19 | 8.57 | –
28 | CCCCCn1cc(C(=O)NC23CC4CC(CC(C4)C2)C3)c(=O)c2cc(C3CCCCC3)ccc21 | 3.14 | – | – | –
29 | COc1ccc(OC)c2c(=O)c(C(=O)NC34CC5CC(CC(C5)C3)C4)c[nH]c12 | 1.6 | 5.68 | 7.28 | –
30 | CC1(C)C(C(=O)c2cn(CCN3CCOCC3)c3cccc(N)c23)C1(C)C | 2.05 | 5.46 | – | –
31 | CCCCCn1cc(C(=O)NC23CC4CC(CC(C4)C2)C3)c(=O)c2cc(-c3ccco3)ccc21 | 4.15 | – | – | –
32 | CCCCCn1cc(C(=O)NC23CC4CC(CC(C4)C2)C3)c(=O)c2cc(CC)ccc21 | 1.74 | – | – | –
33 | CCCCCn1cc(C(=O)NC23CC4CC(CC(C4)C2)C3)c(=O)c2cc(-c3ccc(Cl)cc3)ccc21 | 3 | – | – | –
34 | CC1(C)C(C(=O)c2cn(CC3CCOCC3)c3cc(O)ccc23)C1(C)C | 2.55 | 5.53 | 8.08 | –
35 | Cc1ccc(NC(=O)C2CCCCC2(C)C)cc1S(=O)(=O)N1CCOCC1 (centres undefined) | 1.85 | – | – | –
36 | CC1(C)C(C(=O)c2cn(CC3CCOCC3)c3ccc(OCc4ccccc4)cc23)C1(C)C | 2.3 | 6.63 | – | –
37 | CCCCCn1cc(C(=O)NC23CC4CC(CC(C4)C2)C3)c(=O)c2cc(-c3ccc(Cl)s3)ccc21 | 2.35 | – | – | –
38 | CCCCCn1c(C)c(C(=O)c2ccc(CCC)c3ccccc23)c2ccccc21 | 0.32 | 8.89 | 9.22 | –
39 | CCCCCn1cc(C(=O)NC23CC4CC(CC(C4)C2)C3)c(=O)c2ccccc21 | 0.95 | – | – | –
40 | Cc1ccc(-c2nc(CC(C)(C)C)cs2)cc1S(=O)(=O)N1CCOCC1 | 1.58 | – | – | –
41 | CCCCCn1cc(C(=O)NC23CC4CC(CC(C4)C2)C3)c(=O)c2cc(-c3ccc(O)cc3)ccc21 | 3.38 | – | – | –
42 | CC1=CC[C@@H]2[C@@H](C1)c1c(O)cc(C(C)(C)C3CCCCCC3)cc1OC2(C)C | 0.63 | – | – | –
43 | C=CCCn1cc(C(=O)NC23CC4CC(CC(C4)C2)C3)c(=O)c2cc(-c3ccco3)ccc21 | 3.35 | – | – | –
44 | CCCCCn1cc(C(=O)NC2C3CC4CC(C3)CC2C4)c(=O)c2ccccc21 (centres undefined) | 2.16 | – | – | –
45 | Cc1ccc(NC(=O)C(C)(C(F)(F)F)C(F)(F)F)cc1S(=O)(=O)N1CCOCC1 | 1.31 | – | – | –
46 | CCCCC/C=C\C/C=C\C/C=C\C/C=C\CCCC(=O)N[C@H]1C[C@@H]1O | – | – | – | 191
47 | O=C(c1cn(CC2CCOCC2)c2ccccc12)C1CCCC1 | 1.07 | – | – | –
48 | COc1ccc2c(c1)c(C(=O)C1C(C)(C)C1(C)C)cn2CC1CCOCC1 | 2 | – | – | –
49 | O=S(=O)(CCCC(F)(F)F)Oc1cccc(Oc2cccc3c2C[C@H](CO)C3)c1 | – | – | – | 4.27
50 | CCCCCn1cc(C(=O)NC23CC4CC(CC(C4)C2)C3)c(=O)c2cc(I)ccc21 | 2.01 | – | – | –

Row | SMILES | log(ratioKi) (Homo sapiens) | pKi (Cannabinoid receptor 1) | pKi (Cannabinoid receptor 2) | Ki (Cannabinoid receptor 2) [nM]
51 | Cc1ccc(-c2nc(CC3CCCCC3)cs2)cc1S(=O)(=O)N1CCOCC1 | 1.22 | – | – | –
52 | CCCCCn1cc(C(=O)NC23CC4CC(CC(C4)C2)C3)c(=O)c2cc(-n3ccnc3)ccc21 | 3.1 | – | – | –
53 | COc1ccc(-c2oc3cc(OC)ccc3c2C(=O)c2ccc(C#N)cc2)cc1 | – | – | – | 14800
54 | CN1CCCCC1Cn1cc(C(=O)c2cc([N+](=O)[O-])ccc2I)c2ccccc21 (centres undefined) | 2.64 | – | – | –
55 | CCCCCn1cc(C(=O)NC23CC4CC(CC(C4)C2)C3)c(=O)c2cc(-c3ccccc3)ccc21 | 3.42 | – | – | –
56 | CCCCCn1cc(C(=O)NC23CC4CC(CC(C4)C2)C3)c(=O)c2cc(-c3c(C)noc3C)ccc21 | – | – | – | 102
57 | CCCCCn1cc(C(=O)NC23CC4CC(CC(C4)C2)C3)c(=O)c2cc(CCc3ccccc3)ccc21 | 2.27 | – | – | –
58 | CCCCCn1cc(C(=O)NC23CC4CC(CC(C4)C2)C3)c(=O)c2cc(Sc3ccccc3)ccc21 | 2.28 | – | – | –
59 | C#CCn1cc(C(=O)NC23CC4CC(CC(C4)C2)C3)c(=O)c2cc(Br)ccc21 | 1.81 | – | – | –
60 | CCCCCCNC(=O)c1cn(CCCCC)c2ccc(Br)cc2c1=O | – | – | – | 891
61 | CCCCCn1cc(C(=O)NC23CC4CC(CC(C4)C2)C3)c(=O)c2cc(C3=CCCCC3)ccc21 | 3.08 | – | – | –
62 | CC1(C)C(C(=O)c2cn(C[C@@H]3CCCO3)c3ccccc23)C1(C)C | 1.82 | – | – | –
63 | Cc1nc(C(=O)NC23CC4CC(CC(C4)C2)C3)c(C)n1-c1ccccc1 | 3.2 | – | – | –
64 | Cc1c(C(=O)NC2CCCCC2)nn(-c2ccc(Cl)c(Cl)c2)c1-n1cccc1 | 0.52 | – | – | –
65 | COCc1ccc2c(c1)c(C(=O)C1C(C)(C)C1(C)C)cn2CC1CCOCC1 | – | – | 7.60 | –
66 | CCCCCn1cc(C(=O)NC23CC4CC(CC(C4)C2)C3)c(=O)c2cc(C(F)(F)F)ccc21 | 2.34 | – | – | –
67 | CCCCCn1cc(C(=O)NC23CC4CC(CC(C4)C2)C3)c(=O)c2cc(-c3ccc(F)cc3F)ccc21 | 2.79 | – | – | –
68 | CCCCCn1cc(C(=O)NC23CC4CC(CC(C4)C2)C3)c(=O)c2cc(-c3cc(C)c(OC)c(C)c3)ccc21 | 1.38 | – | – | –
69 | Cc1ccc(NC(=O)C2C(C)(C)C2(C)C)cc1S(=O)(=O)N1CCOCC1 | 2.16 | – | – | –
70 | CCCCCn1c(C)c(C(=O)c2cccc3ccccc23)c2ccccc21 | 0.28 | – | – | –
71 | CCCCCn1cc(C(=O)NC23CC4CC(CC(C4)C2)C3)c(=O)c2cc(-c3ccc(C#N)cc3)ccc21 | 2.38 | – | – | –
72 | CCc1nc(C(=O)NC23CC4CC(CC(C4)C2)C3)c(C)n1-c1ccccc1 | 3.41 | – | – | –
73 | Cc1c(C(=O)NC2CCCCC2)nn(-c2ccc(Cl)c(Cl)c2)c1-n1c(C)ccc1C | 1.05 | – | – | –
74 | CC1(Cc2ccccc2)COc2cc(C(=O)N3CCCCC3)ccc21 (centres undefined) | 1.37 | < 5.00 | – | –
